The values below come from PMC11952234, “Functional profiling of synthetic camel milk-derived peptides with implication in glucose transport and diabetes” (PLOS One, 2025).

Assay [1] has as its system AKT phosphorylation (pAKT-S473) in HepG2 cells. The assay can be described thus: AKT phosphorylation by western blot in HepG2 cells. It counts as cell-based, human. To be noted: 1 μM insulin + 0.1 mg/ml peptide, 10 minutes, 37°C. Here is the method: Following treatment, cells were then lysed with RIPA lysis buffer and thereafter centrifuged at 12000 × g for 30 minutes. Thereafter, the extracted cell lysate proteins were quantified using the bicinchoninic acid (BCA) protein assay. To examine the phosphorylation status of IR and AKT, 30-40 μg of proteins were loaded on 10% SDS-PAGE gel followed by western blot using the following antibodies: the mouse monoclonal anti-phospho-IR (pIR-Tyr1334)(1:1000 dilution) and the mouse monoclonal anti-phospho-AKT (pAKT-S473)(1:2000 dilution) as previously described. The corresponding total proteins loaded were also analyzed in parallel using the specific antibodies against the native forms of the different proteins. Densitometry analysis of the different western blots was performed using Image Studio Version 5.2 software from LICOR (Lincoln, Nebraska, USA).

Assay [2] concerns the target T1, insulin receptor (IR); interaction of IR-Rluc with IRS1-YFP in HEK293 cells (Homo sapiens, UniProt P06213).
T1 construct: expressed in transfected cells; host or cells: HEK293 cells, transient co-transfection; plasmids provided by Dr. Tarik Issad (Cochin Institute, Paris)
Put plainly: BRET assay of IR activation (IR-Rluc/IRS1-YFP), single treatment, dose-response. It counts as cell-based. The conditions noted are these: HEK293, 1 hour, 37°C, minimal data set for Figure 1, average. Here is the method:
(§1) HepG2 and HEK293 cells were maintained at 37°C, 5% CO2 in complete RPMI and Dulbecco’s modified Eagle’s medium (DMEM), respectively, containing 0.3 mg/ml glutamine, 100 IU/ml penicillin, and 100 µg/ml streptomycin) supplemented with 10% fetal calf serum (Gibco, Carlsbad, CA, USA). The transient transfection in HEK293 cells was carried out in 75 cm flask containing 10^7 cells using Lipofectamine 2000 and 5 µg of IR-Rluc and 5 µg of IRS1-YFP (for BRET and phosphorylation experiments) as previously described. All assays were performed 48 hours post-transfection.
(§2) BRET technology was used for IR activation and its interaction with IRS1 as previously described. […] Following treatments, 10 μl of Coelenterazine h was added to a final concentration of 5 µ M and BRET measurements were carried out using the Tristar 2 multi-label plate reader (Berthold, Germany), allowing luminescence recording and signal integration at 480 nm and 540 nm.
(§3) Statistical analyses were performed statistical significance between the different treatments and conditions as indicated in the figures and tables and their captions. […] The significance is indicated in the figures by stars (****p-value < 0.0001, ***p-value < 0.001, ** p-value < 0.01, * p-value < 0.05), and the absence of stars means non-significant (p-value > 0.05). However, the two-way ANOVA was used for multiple comparisons to determine the statistical significance between the different peptides when compared to each other in the different assays as described in the tables.
In general terms: Bioluminescence resonance energy transfer reports proximity on the nanometre scale.

Assay [3] deals with HepG2 cells. Put plainly: Glucose uptake assay (Glucose Uptake-Glo) in HepG2 cells. It counts as cell-based, human. To be noted: 1 hour, 37°C; for glucose uptake, specific luminescence signal, Average: Average of Experiments 1-5, HepG2, 0.1 mg/ml peptide or 1 μM insulin, minimal data set for Figure 5. The protocol: Glucose uptake in HepG2 cells was carried out using Glucose Uptake-Glo Assay (Promega). For this, cells seeded in a 96-well white plate (50,000 cells/well) were first washed with PBS and starved in phenol red-, glucose-, and serum-free medium (Dulbecco’s modified Eagle’s medium containing 0.01 mM HEPES, 0.3 mg/ml glutamine, 100 IU/ml penicillin, and 100 µg/ml streptomycin). […] The treatment was removed, and the cells were washed once with PBS and then incubated with 50 μL/well of freshly prepared 2-deoxyglucose (500 μM) for 10 minutes at room temperature. The uptake process was stopped and neutralized, followed by the addition of 50 μl/well of 2-deoxyglucose-6-phosphate (2DG6P) detection reagent and incubation for 15-60 minutes at room temperature. The glucose-6-phosphate dehydrogenase (G6PDH) oxidizes 2DG6P to 6-phosphodeoxygluconate (6PDG) and reduces NADP + to NADPH. The reductase uses NADPH to convert the proluciferin to luciferin, which is then used by Ultra-Glo™ recombinant luciferase to produce luminescence. This luminescence, proportional to the amount of 2-deoxyglucose transported inside the cells upon treatment, was then measured using a 0.3–1 second integration on GloMax® Discover luminometer according to Glucose Uptake-Glo™ protocol.

The subject of assay [4] is insulin receptor (IR); insulin-induced IR-Rluc/IRS1-YFP BRET in HEK293 cells. Put plainly: BRET assay of IR activation, peptides combined with insulin. The class given is cell-based, human. To be noted: for insulin-induced BRET, % of insulin's response in the vehicle, Average: Average of Experiments 1-7; for insulin-induced BRET, % of insulin's response in the vehicle, Average / insulin-induced BRET, % of insulin's response in the vehicle / % of maximal BRET (insulin-induced): 1 μM insulin + 0.1 mg/ml peptide; for insulin-induced BRET, % of insulin's response in the vehicle, Average / insulin-induced BRET, % of insulin's response in the vehicle: HEK293, minimal data set for Figure 2; for % of maximal BRET (insulin-induced) / profile on insulin-dependent BRET response in combined treatment (in words): HEK293 cells; for % of maximal BRET (insulin-induced): 1 hour, 37°C, % of insulin's response in the vehicle taken as 100%, mean ± SD of five to seven independent experiments in triplicate; for profile on insulin-dependent BRET response in combined treatment (in words): 0.1 mg/ml peptide + 1 μM insulin, compared to insulin alone (Vehicle). Here is the method: as §1, §2
as §3, with “For BRET, the data were normalized by taking as 100% of the maximal insulin-induced BRET signal in the vehicle and analyzed using GraphPad Prism software (San Diego, CA, USA). Statistical” for “Statistical”, “tables. In this case, the different letters indicate statistically significant effects (p-value < 0.05), while the same letters indicate no significant difference between the different treatments compared to each other.” for “tables.”

Where [5] appears, read: HEK293, read-out: BRET, % of the maximal response of insulin, Average, peptide 0.001 mg/ml.
[6] abbreviates: HEK293, read-out: BRET, % of the maximal response of insulin, Average, peptide 0.005 mg/ml.
The mark [7] stands for this setting: HEK293, read-out: BRET, % of the maximal response of insulin, Average, peptide 0.01 mg/ml.
The mark [8] stands for this setting: HEK293, read-out: BRET, % of the maximal response of insulin, Average, peptide 0.05 mg/ml.
The mark [9] stands for this setting: HEK293, read-out: BRET, % of the maximal response of insulin, Average, peptide 0.1 mg/ml.
The mark [10] stands for this setting: HEK293, read-out: BRET, % of the maximal response of insulin, Average, peptide 0.5 mg/ml.
Setting [11] is: HEK293, read-out: BRET, % of the maximal response of insulin, Average, peptide 1 mg/ml.

Molecules are shown by their SMILES. “And” between values parts separate entries of the source, which are not always exact repeats. Identical values can stand only once. Like-named read-outs stand apart in the source and are kept apart here. Marks after values point to notes of the source that are not given here. Residues, ends and D or L forms follow the SMILES beside them.

T1 sequence (P06213 28-758 limits assumed): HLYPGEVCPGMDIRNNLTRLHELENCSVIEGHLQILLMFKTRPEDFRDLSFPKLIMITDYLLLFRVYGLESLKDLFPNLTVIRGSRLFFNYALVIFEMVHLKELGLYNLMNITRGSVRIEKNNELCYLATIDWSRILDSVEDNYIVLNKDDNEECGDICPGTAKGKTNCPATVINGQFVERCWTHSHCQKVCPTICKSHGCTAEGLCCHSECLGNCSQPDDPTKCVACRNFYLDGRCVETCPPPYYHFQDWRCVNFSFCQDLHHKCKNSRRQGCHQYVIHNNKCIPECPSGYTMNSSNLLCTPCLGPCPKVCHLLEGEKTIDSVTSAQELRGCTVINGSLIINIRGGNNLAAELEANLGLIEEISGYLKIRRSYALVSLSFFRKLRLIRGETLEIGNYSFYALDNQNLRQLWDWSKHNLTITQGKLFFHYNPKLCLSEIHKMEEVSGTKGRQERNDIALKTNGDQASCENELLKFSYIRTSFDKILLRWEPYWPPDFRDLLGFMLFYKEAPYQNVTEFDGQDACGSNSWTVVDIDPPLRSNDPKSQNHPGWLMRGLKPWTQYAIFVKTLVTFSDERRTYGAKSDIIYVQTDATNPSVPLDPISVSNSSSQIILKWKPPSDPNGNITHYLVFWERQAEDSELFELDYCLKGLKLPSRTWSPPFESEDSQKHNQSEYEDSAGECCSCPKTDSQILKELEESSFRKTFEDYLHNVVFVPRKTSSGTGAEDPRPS
T1 sequence (P06213 763-1382 limits assumed): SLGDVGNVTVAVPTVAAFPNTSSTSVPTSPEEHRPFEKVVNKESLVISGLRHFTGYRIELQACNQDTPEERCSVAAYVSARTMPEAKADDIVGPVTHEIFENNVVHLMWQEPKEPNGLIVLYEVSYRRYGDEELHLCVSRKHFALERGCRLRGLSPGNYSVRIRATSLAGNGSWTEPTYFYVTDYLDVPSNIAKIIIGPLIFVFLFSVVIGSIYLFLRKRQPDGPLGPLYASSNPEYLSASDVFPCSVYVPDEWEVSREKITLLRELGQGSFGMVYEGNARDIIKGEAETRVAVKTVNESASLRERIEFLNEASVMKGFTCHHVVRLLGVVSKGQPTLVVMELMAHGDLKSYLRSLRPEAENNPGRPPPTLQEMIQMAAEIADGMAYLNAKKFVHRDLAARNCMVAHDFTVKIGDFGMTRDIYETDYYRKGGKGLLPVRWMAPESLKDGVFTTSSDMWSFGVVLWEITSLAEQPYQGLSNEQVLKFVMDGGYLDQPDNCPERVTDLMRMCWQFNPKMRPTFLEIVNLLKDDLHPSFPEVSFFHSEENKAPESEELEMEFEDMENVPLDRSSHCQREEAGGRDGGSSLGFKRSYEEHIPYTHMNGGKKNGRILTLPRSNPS

For `CC(C)C[C@H](N)C(=O)N1CCC[C@H]1C(=O)N[C@H](C(=O)N1CCC[C@H]1C(=O)O)C(C)C` [Peptide P6, LPVP] (H-LPVP-OH; N-terminus and C-terminus assumed), the “insulin-induced AKT phosphorylation, combined treatment (in words)” value in assay [1] is reported as “slightly potentiated”. In addition, the Emax was 18.3% in assay [2] (setting [5]); 25.4% in assay [2] (setting [6]); 35% in assay [2] (setting [7]); 44.5% in assay [2] (setting [8]); 45.6% in assay [2] (setting [9]); 47.9% in assay [2] (setting [10]). In addition, in assay [2] (setting [11]), the Emax worked out at 40.4%. The “glucose uptake, specific luminescence signal, Average” value in assay [3] was found to be 3425500. Further, the “% of glucose uptake” value in assay [3] (HepG2 cells, 0.1 mg/ml peptide or 1 μM insulin, % of insulin's response taken as 100%, mean ± SD of five independent experiments in triplicate) was 135 – 150% and 136 ± 16^d %. Besides, the “insulin-induced BRET, % of insulin's response in the vehicle, Average” value in assay [4] is listed as 140.3. Also, the “insulin-induced BRET, % of insulin's response in the vehicle” value is reported as 115.3 in assay [4] (Experiment 1); 195.4 in assay [4] (Experiment 2); 142.3 in assay [4] (Experiment 3); 129.2 in assay [4] (Experiment 4); 119.3 in assay [4] (Experiment 6). Besides, the “% of maximal BRET (insulin-induced)” value in assay [4] was 135 ± 13^d %. Further, in assay [4], the “profile on insulin-dependent BRET response in combined treatment (in words)” value was “potentiating”.
Take `CC(C)[C@H](N)C(=O)N1CCC[C@H]1C(=O)N[C@@H](Cc1ccccc1)C(=O)O` [Peptide P7, VPF] (H-Val-Pro-Phe-OH; N-terminus and C-terminus assumed): the “insulin-induced AKT phosphorylation, combined treatment (in words)” value in assay [1] was “slightly potentiated”. Also, the Emax in assay [2] (setting [5]) is 7.4%; in assay [2] (setting [6]) it was 26.1%; in assay [2] (setting [7]) it was 31.2%; in assay [2] (setting [8]) it was 44.3%; in assay [2] (setting [9]) it was 40.4%; in assay [2] (setting [10]), 50.8%. Besides, the Emax in assay [2] (setting [11]) came out at 41.1%. For the same compound, the “glucose uptake, specific luminescence signal, Average” value in assay [3] stood at 2605600. Further, the “insulin-induced BRET, % of insulin's response in the vehicle, Average” value in assay [4] amounted to 146.7. In addition, the “insulin-induced BRET, % of insulin's response in the vehicle” value in assay [4] (Experiment 2) stood at 149.4; in assay [4] (Experiment 3), 179.1; in assay [4] (Experiment 4) it was 160.6; in assay [4] (Experiment 6), 120.3; in assay [4] (Experiment 7), 124.3. In addition, the “% of maximal BRET (insulin-induced)” value in assay [4] is on record as 147 ± 11^d %. Moreover, in assay [4], the “profile on insulin-dependent BRET response in combined treatment (in words)” value is “potentiating”.
